Laboratory results as given in patent US8802082B2, “Rhodamine derivatives for photodynamic diagnosis and treatment” (Université de Montreal, priority 1999, dated 2014).

Tests used:
[1] = test system: cells from subject A, activated against B; assay: Allogeneic T cell activation (one-way mixed lymphocyte culture), PDT, then proliferation assay; format: cell-based, human; conditions: TH9402 PDT, 5-day proliferation assay
Experimental: Suspensions of cells were then incubated with 10 μM TH9402 for 40 minutes at 37° C. Cells were treated at 1×10^6 cells/mL in X-vivo-15 medium without phenol red (BioWhittaker, Walkersville, Md., USA) supplemented with 2,5% FBS. At the end of the incubation period, cells were spun down and the cell pellet resuspended in the X-vivo culture medium in the absence of dye, supplemented with 10% FBS. Cells were then placed in T-flasks (Corning, Cambridge, Mass., USA) for 90 minutes at 37° C. Following this second incubation in medium without dye, cells were exposed at 3 mm thickness to desired light energy, usually 5 joules/cm^2 using a previously described light delivery device (U.S. Pat. No. 5,798,523). Light energy was delivered using a fluorescent scanning lamp device with maximum wavelength around 512 nm.
The latter cells were serially diluted in order to obtain effector (treated cells) to target ratios ranging from 2:1 to 1:4 (4×10^4 treated effector cells/well) and incubated at 37° C. for 5 days. Eighteen hours prior to harvesting, 1 μCi of ^3H-thymidine was added. Cells were harvested using a PHD cell harvester (Cambridge Technology, Boston, Mass., USA). Radioactivity in the cell harvest was counted using a liquid scintillation counter (Beckman, Chicago, Ill., USA).
Another approach was used in this study to activate cells against specific target antigens. […]

[2] = test system: activated T lymphocytes (CD25+, CD4+ and CD8+); assay: Phenotypic analysis of residual T lymphocytes after phototherapy (CD25, CD4, CD8 flow cytometry); format: cell-based, human; conditions: 10 μM TH9402; 2.5, 5 and 10 joules/cm^2; 48 to 72 hours culture; untreated 14%
Experimental: In order to determine if the abrogation of reactivity toward subject B obtained after PDT correlated with the loss of activated T cells, the proportion of activated cells was determined in samples exposed or not to PDT. Activated cells can be discriminated from resting T lymphocytes by their enhanced expression of CD25, which can be detected with a monoclonal antibody specific for CD25, the inducible a chain of the IL-2 receptor. Briefly, after activation of T cells in mixed lymphocyte reaction, as described above, activated T lymphocytes were incubated in X-vivo 15 medium (BioWhittaker) supplemented with 2.5% human AB serum and 10 μM TH9402 for 40 min. These cells were than washed twice with X-vivo-15 medium supplemented with 10% AB human serum. At 110 min after the end of the incubation period, cells were exposed to doses of light ranging from 2.5 to 10 joules/cm^2 of using the above described light delivery device (U.S. Pat. No. 5,798,523). Light energy was delivered using a fluorescent scanning device with maximum wavelength at 512 nm. After treatment, cells were cultured for 48 to 72 hours in X-vivo-15 medium supplemented with 15% of human AB serum. After the latter incubation period, cells were counted and their immunophenotypes analyzed by dual-color flow cytometry to determine the proportion of activated T lymphocytes. […]

What does the source list for `Br.COC(=O)c1ccccc1-c1c2ccc(=N)c(Br)c-2oc2c(Br)c(N)ccc12` [TH9402, 4,5-dibromorhodamine 123 (2-(4,5-dibromo-6-amino-3-imino-3H-xanthen-9-yl)-benzoic acid methyl ester) hydrobromide]?
proliferation when exposed to C cells (mismatched unrelated) [1]: retained the capacity to proliferate; proliferation when reexposed to cells from B [1]: did not proliferate; proportion of activated T lymphocytes, both CD4+ and CD8+, after PDT [2]: below 1%
